In patent publication US6977269B1, “Method of improving animal tissue quality” (Pioneer Hi-Bred International, Inc, priority 2001, dated 2005):
Where two headings read alike, the source gives them in different places. Marks after values point to notes of the source that are not given here.

Columns and labels:
[1] = test system: lambs; test: Lamb carcass characteristics; type: in vivo; details: for Bone maturity: A0 = 1.0 ... A90 = 1.9; for Leg score: high Prime = 15 ... low Choice = 10; for Adjusted fat / Body wall thickness / Dressing percentage / Quality grade / Rib eye area / Yield grade: in vivo; for Hot carcass weight: lambs, 500 IU/kg/day for 45 days; for Flank streaking: trace = 1, slight = 2, small = 3
Excerpt: Interim and final weights were taken on two consecutive days after 20 and 43 days on test, respectively, to calculate average daily weight gain (ADG) and feed conversion. On the 45th day on test, the lambs were transported to a commercial packing plant and slaughtered the following morning. Standard carcass data were collected.
Characteristics included hot carcass weight, adjusted fat, rib eye area, and body wall thickness. As indicated in the last two columns under Contrasts (P values), there were no statistically significant differences (P<0.05) in carcass measurements between the alpha and gamma groups or between the control group and the alpha and gamma groups.

[2] = test system: pigs; test: Minolta Chroma Meter L*, a*, b* of pork chops in simulated retail display; type: in vivo
Method: (§1) Young pigs were fed a diet containing 15 IU/kg feed (=15 mg/kg feed=[…]) vitamin E (in the form of alpha-tocopherol acetate) up to 120 pounds. Upon reaching 120 pounds, the pigs were randomly assigned to treatments using weight as a blocking factor. Sixteen pigs were allocated to the control diet, while thirteen pigs were allocated to each test diet. Treatments consisted of typical corn-soybean meal based diets with three levels of dietary tocopherol: (1) Control diet (15 mg/kg feed alpha-tocopherol acetate); (2) diets supplemented with 150, 300 or 450 mg/kg feed alpha-tocopherol acetate; and (3) diets supplemented with 150, 300 or 450 mg/kg feed gamma-tocopherol. Diets were formulated to provide adequate levels of all nutrients and fed in four phases.
(§2) Pork chops (2.5 cm) were cut from vacuum-packaged pork loins that had been stored for 21 days at 1 degree C. Freshly cut chops were placed on styrofoam trays with DriLoc (V 50 pads) and overwrapped with PVC (23,250 cc/m 2 /24 hours oxygen permeability). Pork chops were placed in simulated retail display at 2±3 degrees C. for six days. Product temperature was monitored during the display period. Chops were analyzed for lightness (L*), redness (a*), and yellowness (b*) using Illuminant C or D65 on a Minolta Chroma Meter. Three readings per chop were taken on display days 0, 1, 2, 3, 4 and 5.
(§3) Data were analyzed using the GLM procedure of SAS. Due to a limited number of observations from the 150 IU alpha-tocopherol treatment, no estimates of carcass or loin quality measures are presented for that treatment. Data collected over a period of days were also analyzed as a splitplot. Contrasts were made between the Control and added tocopherol diets, Control and alpha-tocopherol, Control and gamma-tocopherol, and alpha- versus gamma-tocopherol.

[3] = in vivo; cited from earlier work
[4] = test system: pigs; test: Oxidative rancidity of pork chops (2-thiobarbituric acid, TBA number); type: in vivo
Method: as §1, §2
(§4) Determination of pH was made on days 0 and 5 as an indication of pork spoilage. Oxidative rancidity was measured using 2-Thiobarbituric acid to determine TBA number. Final values were expressed as mg malonaldehyde per 1000 grams of meat. Purge was determined on the vacuum-packaged pork loins.
as §3

[5] = test system: pigs; test: Visual panel appearance score of pork loin chops in simulated retail display; type: in vivo
Method: as §1, §2
Loin chop color was evaluated using a trained visual panel of 10 people. Color score was determined using a five-point scale with a score of one (1) representing a very bright pinkish gray and a score of five (5) representing a dull dark red to brown color representative of color deterioration.
as §3

[6] = test system: pigs; type: in vivo, swine
Excerpt: The data was derived from the same swine tests as in Example 1. Data from 43 samples was ranked in descending order for four parameters: alpha-tocopherol concentration, gamma-tocopherol concentration, alpha plus gamma-tocopherol concentration, and ratio of alpha-tocopherol to gamma-tocopherol. The data was divided into four quartiles, averaged, and compared to the corresponding quartile loin pH average.

[7] = test system: pigs; test: Japanese color score of pork loin in swine feeding trial; type: in vivo
Method: (§5) Applicants assessed the effects of gamma-tocopherol supplementation on meat quality in an experiment in which pork from pigs fed one of three dietary concentrations of gamma-tocopherol was compared to pork from pigs fed either no supplemental tocopherol in excess of amounts needed to support growth and development, or one of three dietary concentrations of alpha-tocopherol.
as §1
(§6) The levels of alpha-tocopherol supplementation chosen were those previously shown to improve meat quality and the pigs consuming these diets were used as positive controls. Pigs consuming diets without additional supplementation of alpha or gamma-tocopherol were used as negative controls. Pork quality was assessed using standard methods, including pH, Japanese color score, oxidative stability, retail display appearance and Minolta color values.
(§7) The trial was terminated when the average weight of a treatment replicate reached 260 pounds (minimum of 60 days). Standard carcass data (hot carcass weight, backfat, loin depth and lean) were collected. In addition to the standard carcass data collected at the slaughter plant, color, pH, marbling, firmness and Hunter Lab data were collected. Loin and ham samples were also collected for determination of gamma-tocopherol concentration.
as §3

[8] = test system: pigs; test: Pork loin pH in swine feeding trial; type: in vivo
Method: as §5, §1, §6, §7, §4, §3

[9] = test system: lambs; test: Lamb loin chop coloration in retail display (Hunter values, trained panel); type: in vivo; details: for Hunter L / Hunter a / Hunter b: lamb loin chops, retail case display; for Discoloration: lean discoloration; for Discoloration / Brown color intensity: trained panel
Method: Following carcass fabrication, one boneless leg and the double loin were collected from each carcass, vacuum-packaged, transported and stored under refrigeration (2 to 4° C.) for seven days. […] chops were fabricated from the semimembranosus muscle from each leg following storage. Leg and double-loin chops were wrapped in oxygen permeable fresh meat PVC film. […] The leg chops and second portion of double loin chops were stored in a walk-in cooler.
After seven days in storage, the leg and loin were placed in a display case for nine days to simulate retail meat counter display conditions. Both sides of the double loin chops were evaluated on days 1, 3, 5 and 9 of retail case display for percent lean discoloration and intensity of brownness by a seven-member trained panel and also by a Spectroguard Computer Color Control System. Left and right observation values were averaged.

[10] = pork, all supplemented levels pooled
[11] = five-point scale, all supplemented levels pooled
[12] = pork loin, all supplemented levels pooled
[13] = dietary level 300 IU, listed as gamma-tocopherol

Cc1c(C)c2c(c(C)c1O)CC[C@@](C)(CCC[C@H](C)CCC[C@H](C)CCCC(C)C)O2 [Alpha-tocopherol, alpha-tocopherol, reference compound]
Bone maturity [1]: 1.47^b
Leg score [1]: 10.8
Adjusted fat [1]: 0.55 cm
Body wall thickness [1]: 2.13 cm
Dressing percentage [1]: 48.2
Quality grade [1]: 5.27
Rib eye area [1]: 5.63 sq. cm
Yield grade [1]: 2.42
Hot carcass weight [1]: 27.4 kg
Flank streaking [1]: 3.02^a
Minolta L* values (after 5 day retail display) ([2]; all supplemented levels pooled): 43.6
Minolta a* values (after 5 day retail display) ([2]; all supplemented levels pooled): 7.49
Minolta b* values (after 5 day retail display) ([2]; all supplemented levels pooled): 4.95
Minolta L* values (after 5 day retail display) ([2]; dietary level 300 IU): 45.3^ab
Minolta a* values (after 5 day retail display) ([2]; dietary level 300 IU): 8.40^a
Minolta b* values (after 5 day retail display) ([2]; dietary level 300 IU): 5.93^ab
Minolta L* values (after 5 day retail display) ([2]; dietary level 450 IU): 41.9^bc
Minolta a* values (after 5 day retail display) ([2]; dietary level 450 IU): 6.58^b
Minolta b* values (after 5 day retail display) ([2]; dietary level 450 IU): 3.97^bc
absorbed in the bloodstream [3]: about 100%
Oxidative stability (5 day storage TBA) ([4]; dietary level 300 IU): .134 mg malonaldehyde per 1000 grams of meat
Oxidative stability (5 day storage TBA) ([4]; dietary level 450 IU): .072 mg malonaldehyde per 1000 grams of meat
Oxidative stability (5 day storage TBA) [4, 10]: .103 mg malonaldehyde per 1000 grams of meat
Appearance score (after 5 day retail display) ([5]; dietary level 300 IU): 3.49
Appearance score (after 5 day retail display) ([5]; dietary level 450 IU): 4.09
Appearance score (after 5 day retail display) [5, 11]: 3.79
Corresponding quartile loin pH average ([6]; 1st Q of the ranked parameter): 5.80
Corresponding quartile loin pH average ([6]; 2nd Q of the ranked parameter): 5.78
Corresponding quartile loin pH average ([6]; 3rd Q of the ranked parameter): 6.01
Corresponding quartile loin pH average ([6]; 4th Q of the ranked parameter): 5.93
Japanese Color Score ([7]; dietary level 300 IU): 3.56^ab
Japanese Color Score ([7]; dietary level 450 IU): 3.94^ab
Japanese Color Score [7, 12]: 3.75
PH ([8]; all supplemented levels pooled): 5.97
PH ([8]; dietary level 300 IU): 6.08^ab
PH ([8]; dietary level 450 IU): 5.85^b
Hunter L [9]: 36.3^b
Hunter a [9]: 11.9
Hunter b [9]: 7.54
Discoloration [9]: 12.6%
Brown color intensity [9]: 8.30^b

Cc1c(O)cc2c(c1C)O[C@](C)(CCC[C@H](C)CCC[C@H](C)CCCC(C)C)CC2 [Gamma-tocopherol, gamma-tocopherol]
Bone maturity [1]: 1.62^ab
Leg score [1]: 10.8
Adjusted fat [1]: 0.47 cm
Body wall thickness [1]: 1.92 cm
Dressing percentage [1]: 46.8
Quality grade [1]: 5.23
Rib eye area [1]: 5.62 sq. cm
Yield grade [1]: 2.19
Hot carcass weight [1]: 27.7 kg
Flank streaking [1]: 2.40^ab
Minolta L* values (after 5 day retail display) ([2]; all supplemented levels pooled): 41.4
Minolta a* values (after 5 day retail display) ([2]; all supplemented levels pooled): 8.13
Minolta b* values (after 5 day retail display) ([2]; all supplemented levels pooled): 4.48
Minolta L* values (after 5 day retail display) ([2]; dietary level 150 IU): 42.4^bc
Minolta a* values (after 5 day retail display) ([2]; dietary level 150 IU): 7.57^ab
Minolta b* values (after 5 day retail display) ([2]; dietary level 150 IU): 5.13^bc
Minolta L* values (after 5 day retail display) ([2]; dietary level 300 IU): 39.7^c
Minolta a* values (after 5 day retail display) ([2]; dietary level 300 IU): 8.20^a
Minolta b* values (after 5 day retail display) ([2]; dietary level 300 IU): 3.85^c
Minolta a* values (after 5 day retail display) [2, 13]: 8.40
Minolta L* values (after 5 day retail display) ([2]; dietary level 450 IU): 43.0^b
Minolta a* values (after 5 day retail display) ([2]; dietary level 450 IU): 8.05^a
Minolta b* values (after 5 day retail display) ([2]; dietary level 450 IU): 5.12^bc
absorbed in the bloodstream [3]: 3–19%
Oxidative stability (5 day storage TBA) ([4]; dietary level 150 IU): .177 mg malonaldehyde per 1000 grams of meat
Oxidative stability (5 day storage TBA) ([4]; dietary level 300 IU): .080 mg malonaldehyde per 1000 grams of meat
Oxidative stability (5 day storage TBA) [4, 13]: 0.080 mg malonaldehyde per 1000 gram
Oxidative stability (5 day storage TBA) ([4]; dietary level 450 IU): .125 mg malonaldehyde per 1000 grams of meat
Oxidative stability (5 day storage TBA) [4, 10]: .102 mg malonaldehyde per 1000 grams of meat
Appearance score (after 5 day retail display) ([5]; dietary level 150 IU): 4.05
Appearance score (after 5 day retail display) ([5]; dietary level 300 IU): 4.06
Appearance score (after 5 day retail display) ([5]; dietary level 450 IU): 3.72
Appearance score (after 5 day retail display) [5, 11]: 3.89
Corresponding quartile loin pH average ([6]; 1st Q of the ranked parameter): 6.03
Corresponding quartile loin pH average ([6]; 2nd Q of the ranked parameter): 5.95
Corresponding quartile loin pH average ([6]; 3rd Q of the ranked parameter): 5.77
Corresponding quartile loin pH average ([6]; 4th Q of the ranked parameter): 5.77
Japanese Color Score ([7]; dietary level 150 IU): 3.18^ab
Japanese Color Score ([7]; dietary level 300 IU): 4.32^a
Japanese Color Score ([7]; dietary level 450 IU): 3.56^ab
Japanese Color Score [7, 12]: 3.94
PH ([8]; all supplemented levels pooled): 6.11
PH ([8]; dietary level 150 IU): 5.99^ab
PH ([8]; dietary level 300 IU): 6.28^a
PH ([8]; dietary level 450 IU): 5.94^b
Hunter L [9]: 38.4^a
Hunter a [9]: 11.7
Hunter b [9]: 8.11
Discoloration [9]: 13.7%
Brown color intensity [9]: 10.3^ab
